US20240327421A1 (Marquette University, priority 2017, published 2024)
“Also recorded” adds a separate entry of the source.

What was measured:
Assay type in all cases: cell-based
Vitamin D Receptor (VDR) = target: T1, Vitamin D Receptor (VDR) (Homo sapiens, UniProt P11473); test: GeneBLAzer nuclear hormone receptor specificity assay, VDR; settings: 0.25 to 25 μM; listed as ISP358-2
T1 sequence (P11473 127-423 limits assumed): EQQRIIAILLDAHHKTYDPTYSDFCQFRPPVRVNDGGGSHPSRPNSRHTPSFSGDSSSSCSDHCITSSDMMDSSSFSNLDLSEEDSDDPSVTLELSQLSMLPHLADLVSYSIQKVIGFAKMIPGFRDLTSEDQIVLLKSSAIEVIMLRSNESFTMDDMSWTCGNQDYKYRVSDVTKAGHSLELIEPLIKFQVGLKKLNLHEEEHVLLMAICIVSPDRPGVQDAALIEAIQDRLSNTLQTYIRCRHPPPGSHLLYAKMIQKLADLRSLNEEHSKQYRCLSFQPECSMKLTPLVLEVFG

MCF-7 cells = test: MTT assay for proliferation of MCF-7 cells; settings: 24 h treatment, 0.001-10 μM
Procedure: FIGS. 15A-15C. MTT assay for proliferation of MCF-7 cells. Cells were seeded into 96-well plates and incubated for 24 hr before treatment was applied. […] Absorbance values were converted to cell counts using a standard growth curve.
MTT Assays. Human breast cancer cells (MCF-7) were provided by Dr. Manish Patankar (Department of Obstetrics and Gynecology, University of Wisconsin-Madison). Cells were cultured in Eagle's Minimum Essential Media (EMEM) supplemented with 10% fetal bovine serum and 0.01 mg/mL human recombinant insulin in 5% CO2 at 37° C. A seeding density of 7,000 cells per well was chosen and applied to a 96 well plate. […] Treated cells were incubated for 24 hours after which an MTT (3-(4,5-Dimethylthiazol-2-yl)-2,5-Diphenyltetrazolium Bromide) assay was performed by adding 20% MTT in EMEM solution to cach well and incubating for 4 hours. Formazan crystal metabolites were dissolved using 100% DMSO and absorbance was read at OD 570 nm as well as a reference of 650 nm using a VMax kinetic microplate reader (Molecular Devices, CA) running Softmax Pro version 6.1. Absorbances were converted to cell number using a standard growth curve.

[1] = target: T2, Progesterone Receptor (PR) (Homo sapiens, UniProt P06401); test: GeneBLAzer nuclear hormone receptor specificity assay, PR; settings: 0.25 to 25 μM; listed as ISP358-2
T2 sequence (P06401 679-913 limits assumed): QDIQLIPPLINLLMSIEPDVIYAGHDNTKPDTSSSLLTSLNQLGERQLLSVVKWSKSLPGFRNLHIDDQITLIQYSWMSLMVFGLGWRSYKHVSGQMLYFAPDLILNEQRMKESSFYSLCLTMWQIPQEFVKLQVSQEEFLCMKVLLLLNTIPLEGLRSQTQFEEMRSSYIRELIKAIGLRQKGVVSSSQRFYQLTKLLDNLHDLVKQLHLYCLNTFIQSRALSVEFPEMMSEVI
Procedure: (§1) Nuclear Hormone Receptor Specificity Assay. Selectivity measurements were performed using the SelectScreen™ cell-based nuclear receptor profiling service from ThermoFisher (FIG. 3A). This is a FRET-based assay that uses GeneBLAzer™ technology. It detects ligand binding to and activation of a nuclear hormone receptor of interest (ligand binding domain; LBD) that is fused to a GAL4 DNA binding domain (DBD), which upon activation induces expression of beta-lactamase. The assay has a Z′≥0.5 in agonist mode. […]

[2] = target: T3, Mineralocorticoid Receptor (MR) (Homo sapiens, UniProt P08235); test: GeneBLAzer nuclear hormone receptor specificity assay, MR; settings: 0.25 to 25 μM; listed as ISP358-2
T3 sequence (P08235 726-964 limits assumed): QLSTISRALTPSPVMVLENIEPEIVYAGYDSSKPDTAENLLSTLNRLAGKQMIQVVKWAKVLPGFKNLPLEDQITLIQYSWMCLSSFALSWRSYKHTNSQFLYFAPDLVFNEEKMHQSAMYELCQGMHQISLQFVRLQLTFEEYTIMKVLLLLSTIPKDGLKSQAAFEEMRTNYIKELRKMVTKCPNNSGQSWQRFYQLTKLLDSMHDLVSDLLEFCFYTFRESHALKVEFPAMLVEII

[3] = target: T4, Peroxisome Proliferator-Activated Receptor (PPARδ) (Homo sapiens, UniProt Q03181); test: GeneBLAzer nuclear hormone receptor specificity assay, PPARδ; settings: 0.25 to 25 μM; listed as ISP358-2
T4 sequence (Q03181 211-439 limits assumed): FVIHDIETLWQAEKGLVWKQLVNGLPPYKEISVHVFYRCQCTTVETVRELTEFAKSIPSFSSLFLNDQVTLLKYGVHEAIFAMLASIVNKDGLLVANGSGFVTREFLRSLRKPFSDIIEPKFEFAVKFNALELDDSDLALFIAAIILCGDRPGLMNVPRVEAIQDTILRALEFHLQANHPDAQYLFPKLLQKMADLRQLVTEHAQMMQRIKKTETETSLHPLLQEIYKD
Procedure: as §1

Question: With `OC[C@H]1CC[C@H](c2ccc(O)cc2)CC1` [Compound 16] as the compound, how does the “agonist activity, VDR” value (Vitamin D Receptor (VDR)) read?
Answer: The value was “not an agonist; also recorded: no significant off-target activity”.

Question: And the “proliferation of MCF-7 cells vs untreated control” value (MCF-7 cells)?
Answer: The value was “No significant changes in the growth of MCF-7 cells”.

Question: And the “proliferation of MCF-7 cells vs untreated control” value (MCF-7 cells; listed as ISP358-2)?
Answer: Its value is “neither ISP358-2 nor DPN showed any significant proliferation”.

Question: What about the “agonist activity, PR” value [1] of the same compound?
Answer: The value was “not an agonist; also recorded: no significant off-target activity”.

Question: What about the “agonist activity, MR” value [2] of the same compound?
Answer: The value was “not an agonist; also recorded: no significant off-target activity”.

Question: And the “agonist activity, PPARδ” value [3]?
Answer: Its value is “not an agonist; also recorded: no significant off-target activity”.
